Reference: US20160129011A1, “BICYCLO 2,3-BENZODIAZEPINES AND SPIROCYCLICALLY SUBSTITUTED 2,3-BENZODIAZEPINES” (BAYER PHARMA AKTIENGESELLSCHAFT, priority 2013, published 2016)
pIC50: −log10 of the molar value.

Biological target: T1, BRD4 (BD1) (Homo sapiens, UniProt O60885)
T1 construct: longer constructs also being possible, preferably amino acids 44-168; made in house; host or cells: E. coli
Assay: Binding assay BRD4/acetylated peptide H4 (TR-FRET protein-protein interaction assay)
Conditions: BRD4 (BD1) / acetylated histone H4 peptide
From the text: To assess the BRD4 binding strength of the substances described in this application, the ability thereof to inhibit the interaction between BRD4 (BD1) and acetylated histone H4 in a dose-dependent manner was quantified.
For this purpose, a time-resolved fluorescence resonance energy transfer (TR-FRET) assay was used, which measures the binding between N-terminally His6-tagged BRD4 (BD1) (amino acids 67-152, longer constructs also being possible, preferably amino acids 44-168) and a synthetic acetylated histone H4 (Ac—H4) peptide with sequence GRGK(Ac)GGK(Ac)GLGK(Ac)GGAK(Ac)RHGSGSK-biotin. The recombinant BRD4 protein produced in-house according to Filippakopoulos et al., Nature, 2010, 468:1119-1123 was expressed in E. coli and purified by means of (Ni-NTA) affinity and (Sephadex G-75) size exclusion chromatography. The Ac—H4 peptide can be purchased, for example, from Biosyntan (Berlin, Germany).
In the assay, typically 11 different concentrations of each substance (0.1 nM, 0.33 nM, 1.1 nM, 3.8 nM, 13 nM, 44 nM, 0.15 μM, 0.51 μM, 1.7 μM, 5.9 μM and 20 μM) were analysed as duplicates on the same microtitre plate. For this purpose, 100-fold concentrated solutions in DMSO were prepared by serial dilutions (1:3.4) of a 2 mM stock solution into a clear, 384-well microtitre plate (Greiner Bio-One, Frickenhausen, Germany). From this, 50 nl were transferred into a black test plate (Greiner Bio-One, Frickenhausen, Germany). The test was started by the addition of 2 μl of a 2.5-fold concentrated BRD4 solution (final concentration typically 10 nM in the 5 μl of reaction volume) in aqueous assay buffer [50 mM HEPES pH 7.5, 50 mM sodium chloride (NaCl), 0.25 mM CHAPS and 0.05% serum albumin (BSA)] to the substances in the test plate. This was followed by a 10-minute incubation step at 22° C. for the pre-equilibration of putative complexes between BRD4 and the substances.
The mixture was then incubated in the dark at 22° C. for one hour and then at 4° C. for at least 3 hours and for no longer than overnight. The formation of BRD4/Ac—H4 complexes was determined by the measurement of the resonance energy transfer from the streptavidin-Eu cryptate to the anti-6His-XL665 antibody present in the reaction. For this purpose, the fluorescence emission was measured at 620 nm and 665 nm after excitation at 330-350 nm in a TR-FRET measuring instrument, for example a Rubystar or Pherastar (both from BMG Lab Technologies, Offenburg, Germany) or a Viewlux (Perkin-Elmer). The ratio of the emissions at 665 nm and at […] was taken as an indicator of the amount of BRD4/Ac—H4 complexes formed.
The data (ratios) obtained were normalized, with 0% inhibition corresponding to the mean from the measurements for a set of controls (typically 32 data points) in which all the reagents were present. In these, in place of test substances, 50 nl of DMSO (100%) were used. Inhibition of 100% corresponded to the mean from the measurements for a set of controls (typically 32 data points) in which all the reagents except BRD4 were present. The IC50 was determined by regression analysis based on a 4-parameter equation (minimum, maximum, IC50, Hill; Y=max+(min−max)/(1+(X/IC50)^Hill)).

SMILES	pIC50
CNC(=O)N1N=C(c2ccc(N3CC4(CCS4(=O)=O)C3)cc2)c2cc(-n3nc(C)cc3C)ccc2CC1C (racemic) [Example 17, (±)-8-(3,5-dimethyl-1H-pyrazol-1-yl)-1-[4-(1,1-dioxido-1-thia-6-azaspiro[3.3]hept-6-yl)phenyl]-N,4-dimethyl-4,5-dihydro-3H-2,3-benzodiazepine-3-carboxamide]	7.40
CNC(=O)N1N=C(c2ccc(N3CCC4(CC3)CNC(=O)C4)cc2)c2cc(OC)c(OC)cc2CC1C (racemic) [Example 28, (±)-7,8-Dimethoxy-N,4-dimethyl-1-[4-(3-oxo-2,8-diazaspiro[4.5]dec-8-yl)phenyl]-4,5-dihydro-3H-2,3-benzodiazepine-3-carboxamide]	7.00
CNC(=O)N1N=C(c2ccc(N3CCC4(CCN(C)C4)CC3)cc2)c2cc(OC)c(OC)cc2CC1C (racemic) [Example 31, (±)-7,8-dimethoxy-N,4-dimethyl-1-[4-(2-methyl-2,8-diazaspiro[4.5]dec-8-yl)phenyl]-4,5-dihydro-3H-2,3-benzodiazepine-3-carboxamide]	7.00
CNC(=O)N1N=C(c2ccc(N3CCC4(CC3)COC(=O)N4)cc2)c2cc(OC)c(OC)cc2CC1C (racemic) [Example 32]	6.96
CNC(=O)N1N=C(c2ccc(N3CC4(C3)CS(=O)(=O)C4)cc2)c2cc(OC)c(OC)cc2CC1C (racemic) [Example 34, (±)-1-[4-(2,2-dioxido-2-thia-6-azaspiro[3.3]hept-6-yl)phenyl]-7,8-dimethoxy-N,4-dimethyl-4,5-dihydro-3H-2,3-benzodiazepine-3-carboxamide]	7.15
CNC(=O)N1N=C(c2ccc(N3C4CCC3CC(=O)NC4)cc2)c2cc(OC)c(OC)cc2CC1C (racemic) [Example 39, (±)-7,8-Dimethoxy-N,4-dimethyl-1-[4-(4-oxo-3,9-diazabicyclo[4.2.1]non-9-yl)phenyl]-4,5-dihydro-3H-2,3-benzodiazepine-3-carboxamide]	6.92
CNC(=O)N1N=C(c2ccc(N3C(=O)[C@@H]4CC[C@H]3C4)cc2)c2cc(OC)c(OC)cc2C[C@@H]1C (relative stereo) [Example 2, {1S-[1R*,2(S*),4S*]}-7,8-dimethoxy-N,4-dimethyl-1-[4-(-3-oxo-2-azabicyclo[2.2.1]hept-2-yl)phenyl]-4,5-dihydro-3H-2,3-benzodiazepine-3-carboxamide]	7.70
CNC(=O)N1N=C(c2ccc(N3C[C@@H]4C[C@H]3CN4C)cc2)c2cc(OC)c(OC)cc2C[C@@H]1C (relative stereo) [Example 40.2, [1S-[1R*,2(R*),4R*]]-7,8-Dimethoxy-N,4-dimethyl-1-[4-(5-methyl-2,5-diazabicyclo[2.2.1]hept-2-yl)phenyl]-4,5-dihydro-3H-2,3-benzodiazepine-3-carboxamide]	6.28
CNC(=O)N1N=C(c2ccc(F)c(N3C[C@@H]4C[C@H]3CN4C)c2)c2cc(OC)c(OC)cc2C[C@H]1C (relative stereo) [Example 41.1, [1S-(1R*,2(S*),4R*)]-1-[4-fluoro-3-(5-methyl-2,5-diazabicyclo[2.2.1]hept-2-yl)phenyl]-7,8-dimethoxy-4,5-dihydro-N,4-dimethyl-3H-2,3-benzodiazepine-3-carboxamide]	4.78
CNC(=O)N1N=C(c2ccc(F)c(N3C[C@@H]4C[C@H]3CN4C)c2)c2cc(OC)c(OC)cc2C[C@@H]1C (relative stereo) [Example 41.2, [1S-(1R*,2(R*),4R*)]-1-[4-fluoro-3-(5-methyl-2,5-diazabicyclo[2.2.1]hept 2-yl)phenyl]-7,8-dimethoxy-4,5-dihydro-N,4-dimethyl-3H-2,3-benzodiazepine-3-carboxamide]	6.42
CNC(=O)N1N=C(c2ccc(N3CC4(CCS4(=O)=O)C3)cc2)c2cc(OC)c(OC)cc2C[C@H]1C [Example 3.2, (4R)-1-[4-(1,1-Dioxido-1-thia-6-azaspiro[3.3]hept-6-yl)phenyl]-7,8-dimethoxy-N,4-dimethyl-4,5-dihydro-3H-2,3-benzodiazepine-3-carboxamide]	5.59
